Assay results as given in ChEMBL document CHEMBL1151947, “Synthesis, potency, and in vivo evaluation of 2-piperazin-1-ylquinoline analogues as dual serotonin reuptake inhibitors and serotonin 5-HT1A receptor antagonists” (J Med Chem, 2009).

Assays:
[1] = target: T1, 5-hydroxytryptamine receptor 1A (Homo sapiens) (UniProt P08908); assay: Antagonist activity at human 5HT1A receptor expressed in CHO cells assessed as inhibition of [35S]GTPgammaS binding relative to control; format: functional, cell-based
T1 sequence (whole entry): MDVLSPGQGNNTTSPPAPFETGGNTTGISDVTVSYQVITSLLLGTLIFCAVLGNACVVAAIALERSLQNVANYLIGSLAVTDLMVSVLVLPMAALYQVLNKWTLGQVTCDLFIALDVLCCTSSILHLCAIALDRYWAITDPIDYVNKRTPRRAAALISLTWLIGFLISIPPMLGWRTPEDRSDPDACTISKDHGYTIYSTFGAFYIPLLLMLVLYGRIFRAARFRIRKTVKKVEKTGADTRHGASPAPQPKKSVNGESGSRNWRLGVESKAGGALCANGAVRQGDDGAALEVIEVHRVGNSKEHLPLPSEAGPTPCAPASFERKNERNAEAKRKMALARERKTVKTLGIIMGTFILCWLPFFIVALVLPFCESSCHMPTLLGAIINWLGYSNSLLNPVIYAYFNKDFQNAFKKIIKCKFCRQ

D(2) dopamine receptor = D(2) dopamine receptor (Homo sapiens, UniProt P14416); assay: Displacement of [3H]spiperone from human dopamine D2 receptor expressed in CHO cells; format: cell-based
D(2) dopamine receptor, sequence (P14416 whole entry): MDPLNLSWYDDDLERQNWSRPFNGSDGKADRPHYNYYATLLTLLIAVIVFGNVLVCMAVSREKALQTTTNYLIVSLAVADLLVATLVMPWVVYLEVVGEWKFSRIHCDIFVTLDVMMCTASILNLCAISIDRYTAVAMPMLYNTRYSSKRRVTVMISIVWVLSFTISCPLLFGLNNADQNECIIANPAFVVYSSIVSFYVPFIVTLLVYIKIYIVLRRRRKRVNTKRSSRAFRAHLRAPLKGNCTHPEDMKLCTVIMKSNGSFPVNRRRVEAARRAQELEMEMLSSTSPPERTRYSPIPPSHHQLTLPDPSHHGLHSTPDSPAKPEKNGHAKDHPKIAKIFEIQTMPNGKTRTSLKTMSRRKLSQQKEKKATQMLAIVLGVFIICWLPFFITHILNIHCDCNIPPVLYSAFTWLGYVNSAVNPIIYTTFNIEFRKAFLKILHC

D(3) dopamine receptor = D(3) dopamine receptor (Homo sapiens, UniProt P35462); assay: Displacement of [3H]spiperone from human dopamine D3 receptor expressed in CHO cells; format: cell-based
D(3) dopamine receptor, sequence (P35462 whole entry): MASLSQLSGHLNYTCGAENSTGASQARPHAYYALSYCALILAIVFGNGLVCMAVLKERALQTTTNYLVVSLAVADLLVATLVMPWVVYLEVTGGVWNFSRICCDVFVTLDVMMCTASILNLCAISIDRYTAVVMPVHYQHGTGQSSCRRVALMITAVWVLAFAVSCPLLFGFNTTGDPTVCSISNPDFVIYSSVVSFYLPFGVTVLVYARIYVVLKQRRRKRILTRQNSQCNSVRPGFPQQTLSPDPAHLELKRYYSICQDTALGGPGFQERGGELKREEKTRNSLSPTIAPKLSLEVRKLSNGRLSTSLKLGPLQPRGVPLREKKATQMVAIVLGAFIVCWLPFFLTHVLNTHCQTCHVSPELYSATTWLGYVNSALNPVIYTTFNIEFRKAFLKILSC

D(4) dopamine receptor = target: T2, D(4) dopamine receptor (Homo sapiens, UniProt P21917); assay: Displacement of [3H]spiperone from human dopamine D4 receptor expressed in CHO cells; format: cell-based
T2 sequence (P21917 whole entry): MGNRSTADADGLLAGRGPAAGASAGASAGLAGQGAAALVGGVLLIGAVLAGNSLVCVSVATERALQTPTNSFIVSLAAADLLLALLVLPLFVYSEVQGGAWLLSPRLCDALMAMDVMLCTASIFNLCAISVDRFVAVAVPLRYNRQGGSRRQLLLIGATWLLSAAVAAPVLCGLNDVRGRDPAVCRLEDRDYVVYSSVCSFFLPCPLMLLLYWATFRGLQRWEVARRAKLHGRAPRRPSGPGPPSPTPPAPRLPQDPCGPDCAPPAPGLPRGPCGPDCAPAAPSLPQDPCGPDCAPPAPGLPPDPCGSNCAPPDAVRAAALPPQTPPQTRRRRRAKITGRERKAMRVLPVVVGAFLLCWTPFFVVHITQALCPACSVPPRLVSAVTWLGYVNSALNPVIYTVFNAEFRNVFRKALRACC

Rattus norvegicus [2] = assay: Initial plasma concentration in rat at 1 mg/kg, iv; format: ADME, organism-based; design: dose 1 mg/kg, route intravenous; details: in vivo
[3] = Elimination half life in rat at 1 mg/kg, iv; format: ADME, organism-based; design: dose 1 mg/kg, route intravenous; details: in vivo, read-out: beta t1/2 (converted)
Rattus norvegicus [4] = assay: AUC in rat at 1 mg/kg, iv; format: ADME, organism-based, Plasma; design: dose 1 mg/kg, route intravenous; details: in vivo
[5] = Cmax in rat at 3 mg/kg, po; format: ADME, organism-based; design: dose 3 mg/kg, route oral; details: in vivo
[6] = Tmax in rat at 3 mg/kg, po; format: ADME, organism-based; design: dose 3 mg/kg, route oral; details: in vivo
[7] = Elimination half life in rat at 3 mg/kg, po; format: ADME, organism-based; design: dose 3 mg/kg, route oral; details: in vivo, read-out: beta t1/2 (converted)
[8] = AUC in rat at 3 mg/kg, po; format: ADME, organism-based; design: dose 3 mg/kg, route oral; details: plasma
[9] = Oral bioavailability in rat at 3 mg/kg; format: ADME, organism-based; details: in vivo
[10] = Cmax in rat at 10 mg/kg, po; format: ADME, organism-based; design: dose 10 mg/kg, route oral; details: in vivo
[11] = Elimination half life in rat at 10 mg/kg, po; format: ADME, organism-based; design: dose 10 mg/kg, route oral; details: in vivo, read-out: beta t1/2 (converted)
[12] = AUC in rat at 10 mg/kg, po; format: ADME, organism-based; design: dose 10 mg/kg, route oral; details: plasma
Rattus norvegicus [13] = assay: Antidepressant activity in rat assessed as increase in extracellular 5HT level in dorsal lateral frontal cortex at 30 mg/kg, po after 3 hrs by microdialysis assay relative to basal level; format: functional
Rattus norvegicus [14] = assay: Antidepressant activity in po dosed rat assessed as increase in extracellular 5HT level in dorsal lateral frontal cortex after 3 hrs by microdialysis assay; format: functional, organism-based
Cytochrome P450 2A6 = target: T3, Cytochrome P450 2A6 (Homo sapiens, UniProt P11509); assay: Inhibition of CYP2A6 in human liver microsomes upto 100 uM; format: ADME, Microsome
T3 sequence (P11509 whole entry): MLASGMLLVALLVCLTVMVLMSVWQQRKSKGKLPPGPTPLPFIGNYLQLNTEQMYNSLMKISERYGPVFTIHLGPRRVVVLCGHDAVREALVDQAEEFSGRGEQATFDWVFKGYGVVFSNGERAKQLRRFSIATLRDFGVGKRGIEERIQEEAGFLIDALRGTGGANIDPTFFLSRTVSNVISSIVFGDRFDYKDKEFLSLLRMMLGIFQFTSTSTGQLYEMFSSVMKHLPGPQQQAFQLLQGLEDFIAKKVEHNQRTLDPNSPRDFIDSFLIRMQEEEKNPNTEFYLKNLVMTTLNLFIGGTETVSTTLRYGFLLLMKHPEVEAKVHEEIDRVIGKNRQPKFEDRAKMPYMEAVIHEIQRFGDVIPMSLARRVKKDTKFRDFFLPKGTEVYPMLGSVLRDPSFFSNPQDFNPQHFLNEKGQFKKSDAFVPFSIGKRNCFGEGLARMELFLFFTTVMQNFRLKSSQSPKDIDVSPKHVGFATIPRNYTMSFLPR

Cytochrome P450 2D6 = Cytochrome P450 2D6 (Homo sapiens, UniProt P10635); assay: Inhibition of CYP2D6 in human liver microsomes upto100 uM; format: ADME, Microsome
Cytochrome P450 2D6, sequence (P10635 whole entry): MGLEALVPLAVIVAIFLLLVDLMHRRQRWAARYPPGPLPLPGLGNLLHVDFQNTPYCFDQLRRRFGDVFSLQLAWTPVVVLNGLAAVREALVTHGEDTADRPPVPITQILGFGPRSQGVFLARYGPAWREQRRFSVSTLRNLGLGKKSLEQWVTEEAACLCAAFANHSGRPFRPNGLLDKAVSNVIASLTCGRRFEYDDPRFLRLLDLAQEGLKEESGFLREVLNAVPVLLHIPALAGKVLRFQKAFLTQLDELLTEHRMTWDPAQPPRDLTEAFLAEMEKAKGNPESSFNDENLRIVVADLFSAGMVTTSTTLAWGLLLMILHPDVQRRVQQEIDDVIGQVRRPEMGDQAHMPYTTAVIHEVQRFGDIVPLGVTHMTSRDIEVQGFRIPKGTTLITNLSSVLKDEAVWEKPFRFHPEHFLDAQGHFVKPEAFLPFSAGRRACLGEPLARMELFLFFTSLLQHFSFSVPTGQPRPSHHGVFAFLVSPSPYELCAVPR

Cytochrome P450 2C9 = Cytochrome P450 2C9 (Homo sapiens, UniProt P11712); assay: Inhibition of CYP2C9 in human liver microsomes; format: ADME, Microsome
Cytochrome P450 2C9, sequence (P11712 whole entry): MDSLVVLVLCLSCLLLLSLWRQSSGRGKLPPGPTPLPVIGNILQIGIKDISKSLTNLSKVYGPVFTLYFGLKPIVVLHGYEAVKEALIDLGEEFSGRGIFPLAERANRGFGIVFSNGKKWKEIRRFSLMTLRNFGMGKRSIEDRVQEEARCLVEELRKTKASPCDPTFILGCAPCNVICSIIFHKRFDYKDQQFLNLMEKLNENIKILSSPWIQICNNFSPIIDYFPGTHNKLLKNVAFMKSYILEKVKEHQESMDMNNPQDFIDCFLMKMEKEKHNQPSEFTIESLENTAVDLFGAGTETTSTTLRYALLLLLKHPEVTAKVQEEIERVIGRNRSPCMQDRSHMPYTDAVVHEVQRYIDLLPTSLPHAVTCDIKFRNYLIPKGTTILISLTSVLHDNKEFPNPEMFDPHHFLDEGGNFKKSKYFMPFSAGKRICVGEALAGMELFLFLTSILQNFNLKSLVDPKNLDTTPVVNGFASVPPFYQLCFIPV

Cytochrome P450 2C8 = target: T4, Cytochrome P450 2C8 (Homo sapiens, UniProt P10632); assay: Inhibition of CYP2C8 in human liver microsomes; format: ADME, Microsome
T4 sequence (P10632 whole entry): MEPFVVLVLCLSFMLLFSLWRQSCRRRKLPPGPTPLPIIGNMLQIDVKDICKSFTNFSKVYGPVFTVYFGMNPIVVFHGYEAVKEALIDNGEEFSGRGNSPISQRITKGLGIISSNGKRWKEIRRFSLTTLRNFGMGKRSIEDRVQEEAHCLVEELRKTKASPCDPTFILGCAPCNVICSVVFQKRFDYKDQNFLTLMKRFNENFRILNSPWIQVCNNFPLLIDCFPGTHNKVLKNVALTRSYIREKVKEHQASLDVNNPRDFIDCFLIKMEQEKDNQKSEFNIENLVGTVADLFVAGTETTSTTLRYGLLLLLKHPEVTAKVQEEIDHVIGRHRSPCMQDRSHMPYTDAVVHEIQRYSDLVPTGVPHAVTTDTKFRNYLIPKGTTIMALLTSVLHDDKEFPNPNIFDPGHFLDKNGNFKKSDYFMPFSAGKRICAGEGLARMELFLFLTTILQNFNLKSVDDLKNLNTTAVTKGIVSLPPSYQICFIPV

Cytochrome P450 2C19 = Cytochrome P450 2C19 (Homo sapiens, UniProt P33261); assay: Inhibition of CYP2C19 in human liver microsomes; format: ADME, Microsome
Cytochrome P450 2C19, sequence (P33261 whole entry): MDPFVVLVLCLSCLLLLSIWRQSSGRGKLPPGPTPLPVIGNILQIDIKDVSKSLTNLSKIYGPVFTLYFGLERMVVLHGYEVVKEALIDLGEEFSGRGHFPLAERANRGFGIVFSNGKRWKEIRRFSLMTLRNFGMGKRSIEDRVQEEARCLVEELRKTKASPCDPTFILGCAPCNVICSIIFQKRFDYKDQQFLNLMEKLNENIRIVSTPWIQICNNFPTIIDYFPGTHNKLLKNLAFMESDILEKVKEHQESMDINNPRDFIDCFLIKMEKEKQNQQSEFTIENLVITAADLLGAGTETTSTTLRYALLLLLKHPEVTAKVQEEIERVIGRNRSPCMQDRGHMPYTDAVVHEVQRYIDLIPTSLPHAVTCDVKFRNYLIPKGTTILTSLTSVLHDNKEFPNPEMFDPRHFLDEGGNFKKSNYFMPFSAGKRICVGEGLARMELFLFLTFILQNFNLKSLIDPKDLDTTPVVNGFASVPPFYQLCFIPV

Cytochrome P450 3A4 = Cytochrome P450 3A4 (Homo sapiens, UniProt P08684); assay: Inhibition of CYP3A4 in human liver microsomes; format: ADME, Microsome
Cytochrome P450 3A4, sequence (P08684 whole entry): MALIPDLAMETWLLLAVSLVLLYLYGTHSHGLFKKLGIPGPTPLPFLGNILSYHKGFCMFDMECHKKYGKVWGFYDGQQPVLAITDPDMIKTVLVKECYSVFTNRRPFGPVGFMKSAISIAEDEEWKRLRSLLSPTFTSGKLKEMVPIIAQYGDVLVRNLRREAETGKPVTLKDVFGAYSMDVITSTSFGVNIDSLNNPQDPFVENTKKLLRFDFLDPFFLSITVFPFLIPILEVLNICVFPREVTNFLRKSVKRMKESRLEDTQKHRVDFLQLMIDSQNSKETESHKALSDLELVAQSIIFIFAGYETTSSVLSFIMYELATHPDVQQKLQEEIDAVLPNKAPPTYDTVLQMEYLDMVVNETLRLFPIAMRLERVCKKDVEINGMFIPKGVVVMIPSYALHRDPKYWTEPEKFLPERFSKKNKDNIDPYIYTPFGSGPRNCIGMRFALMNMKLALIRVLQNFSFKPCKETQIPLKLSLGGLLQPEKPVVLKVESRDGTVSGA

[15] = target: Sodium-dependent serotonin transporter (Rattus norvegicus, UniProt P31652)
Sodium-dependent serotonin transporter, sequence (P31652 whole entry): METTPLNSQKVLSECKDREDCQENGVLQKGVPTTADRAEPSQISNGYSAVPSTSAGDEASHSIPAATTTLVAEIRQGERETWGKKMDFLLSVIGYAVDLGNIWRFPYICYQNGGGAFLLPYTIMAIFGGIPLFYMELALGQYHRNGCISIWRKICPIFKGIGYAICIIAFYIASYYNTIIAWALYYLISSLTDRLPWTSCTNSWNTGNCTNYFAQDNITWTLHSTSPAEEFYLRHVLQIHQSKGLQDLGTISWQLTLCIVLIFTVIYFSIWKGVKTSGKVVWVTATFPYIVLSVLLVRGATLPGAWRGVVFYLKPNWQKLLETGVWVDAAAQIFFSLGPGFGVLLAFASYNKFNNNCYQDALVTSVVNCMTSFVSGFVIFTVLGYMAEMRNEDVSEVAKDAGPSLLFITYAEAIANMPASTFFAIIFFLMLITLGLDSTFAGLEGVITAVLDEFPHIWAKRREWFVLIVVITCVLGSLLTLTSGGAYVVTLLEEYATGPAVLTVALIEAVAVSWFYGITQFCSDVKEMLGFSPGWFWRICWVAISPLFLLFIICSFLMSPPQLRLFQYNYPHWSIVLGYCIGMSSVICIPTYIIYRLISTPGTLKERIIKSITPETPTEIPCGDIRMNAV
Description: Displacement of [3H]paroxetine from 5HT transporter in rat cortical membrane

- Imax [1]: 88.6%
- Ki (D(2) dopamine receptor): 1.31 µM
- Ki (D(3) dopamine receptor): 1.32 µM
- Ki (D(4) dopamine receptor): 1.42 µM
- C0 (Rattus norvegicus [2]): 903 ng/mL
- half-life [3]: 4 h
- AUC (Rattus norvegicus [4]): 1268 ng·h/mL
- Cmax [5]: 456 ng/mL
- Tmax [6]: 1.3 h
- half-life [7]: 3.8 h
- AUC [8]: 2320 ng·h/mL
- bioavailability [9]: 61%
- Cmax [10]: 815 ng/mL
- half-life [11]: 3.8 h
- AUC [12]: 4620 ng·h/mL
- inhibition (INH) (Cytochrome P450 2A6): Not Active
- inhibition (INH) (Cytochrome P450 2D6): Not Active
- IC50 (Cytochrome P450 2C9): 358 µM
- IC50 (Cytochrome P450 2C8): 29 µM
- IC50 (Cytochrome P450 2C19): 98 µM
- IC50 (Cytochrome P450 3A4): 10 µM
- Ki [15]: 0.0138 µM
SMILES: Cc1ccc2c3c(ccc2n1)OC[C@H](CN1CCN(c2ccc4cc(C#N)ccc4n2)CC1)O3
- Activity (Rattus norvegicus [13]): 71%
- Activity (Rattus norvegicus [14]): Dose-dependent effect
